Article PMC8956739, “A synthetic lipopeptide targeting top-priority multidrug-resistant Gram-negative pathogens” (Nature Communications, 2022)
Values after ≈ are worked out from the molar mass of the structure shown. Where two headings read alike, the source gives them in different places. Residues, ends and D or L forms follow the SMILES beside them.

Legend:
A. baumannii FADDI-AB144 = type: cell-based, Acinetobacter baumannii
How it was run: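 Broth microdilution, CaMHB; MIC read as the antibacterial endpoint against ATCC reference strains and clinical isolates.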

A. baumannii FADDI-AB156 = assay: MIC, polymyxin-resistant isolate; type: cell-based, Acinetobacter baumannii; details: carbapenem-resistant
Method: (§1) MICs were determined in cation-adjusted Mueller–Hinton broth (CaMHB) by the broth micro-dilution method against ATCC strains and clinical isolates. MICs in the presence of Survanta® were determined as described above against P. aeruginosa ATCC 27853. In the 100 μL of fresh CaMHB containing polymyxins, 10% Survanta® (v/v, 2.5 mg/mL phospholipids) was added. MICs in the presence and absence of Survanta® were compared to determine the effect of binding to lung surfactant on the antibacterial activity of polymyxins.

P. aeruginosa PAM1626 = assay: Efflux inhibition assay (Leu-Nap hydrolysis), efflux-deficient strain; type: cell-based, Pseudomonas aeruginosa
Method: (§2) Bacterial strains were seeded in 50 mL of Luria-Bertani (LB) broth at OD600 0.05 and grown at 37 °C for 3-4 h until an OD600 of 0.6–0.8 was achieved. Bacterial cells were washed twice with 25 mL of buffer (50 mM sodium phosphate, 0.5% glucose, pH 7, with or without 1 mM Mg^2+), resuspended in 10 mL of the buffer, and then adjusted to an OD600 of 0.4. […] Bacterial suspension (50 μL, OD600 0.4) in buffer was added to the lipopeptide solutions and the rate of substrate hydrolysis was measured at 490 nm.
(§3) Activity of F365 and polymyxin B in the efflux inhibition assay.
(§4) One of the consequences of disruption/permeabilization of the cytoplasmic membrane by polymyxins is the dissipation of the proton gradient across the cytoplasmic membrane. […]
(§5) these compounds are expected to inhibit proton-dependent transport activity across the cytoplasmic membrane including efflux. Efflux activity and its inhibition by F365 was assessed by examining the rates of hydrolysis of a fluorogenic substrate of efflux pumps, Leu-Nap, by intact cells of P. aeruginosa. For these experiments we used two strains of P. aeruginosa, PAM1723 and PAM1626. PAM1723 overexpresses the efflux pump MexAB-OprM and PAM1626 lacks this pump as well as several other pumps that extrude Leu-Nap. […] The rate of production of β-naphthylamine (recorded as an increase in fluorescence) is limited by the rate of entry of Leu-Nap into the cells. […]

A. baumannii FADDI-AB30 = assay: Neutropenic mouse thigh infection model; type: in vivo; details: for diff of mean Log10 CFU/lung, Pre-treament minus treatment / diff of mean Log10 CFU/lung, Vehicle minus treatment / Log10 CFU/lung, Thigh 1 / Log10 CFU/lung, Thigh 2 / Log10 CFU/lung, Thigh 3 / Log10 CFU/lung, Thigh 4: 45mg/kg/d; for Log10 CFU/lung, Thigh 1 / Log10 CFU/lung, Thigh 2 / Log10 CFU/lung, Thigh 3 / Log10 CFU/lung, Thigh 4: neutropenic mouse thigh infection; for Log10 CFU/lung, Thigh 1: Thigh 1 (Supp Fig. 4); for Log10 CFU/lung, Thigh 2: Thigh 2 (Supp Fig. 4); for Log10 CFU/lung, Thigh 3: Thigh 3 (Supp Fig. 4); for Log10 CFU/lung, Thigh 4: Thigh 4 (Supp Fig. 4)
Method: The experimental methodology for the neutropenic mouse thigh infection model was previously described in detail. Briefly, Swiss mice (female, 7-week-old, 22–28 g) were rendered neutropenic by intraperitoneal administration of cyclophosphamide 4 days (150 mg/kg) and 1 day (100 mg/kg) prior to inoculation. Thigh infection was established by the administration of a 50 µL bolus of early log-phase bacterial suspension (4 × 10^8 CFU/mL) directly into each thigh of two mice in each group (n = 4 thighs); this method is well accepted in antibiotic pharmacokinetic/ pharmacodynamic studies to minimize animal usage. Lipopeptide solutions were prepared in sterile saline. At 2 h after inoculation, mice were administered a lipopeptide or control solution via an intraperitoneal bolus injection at 15 mg/kg, three doses every 8 h. At 0 and 24 h after the administration, animals were euthanized and each thigh was collected and homogenized under sterile conditions. Homogenate was filtered and the filtrate was collected, serially diluted in sterile saline, and spread on nutrient agar plates. Agar plates were incubated at 37 °C overnight for bacterial colony counting and the bacterial load of both thighs (log10 CFU/thigh) in each mouse was calculated. In vivo efficacy was calculated as the difference of the log10 CFU/thigh values between the treated mice at 24 h and the pre-treatment (control) at 0 h (Δlog10 CFU/thigh = log10 [treated] CFU/thigh − log10 [pre-treatment] CFU/thigh).

[1] = type: in vitro ADME; details: plasma
Method: The plasma pharmacokinetic profiles of F365 and polymyxin B were assessed in Swiss mice (female, 7-week-old, 22–28 g) after a single intraperitoneal dose (5 mg/kg, n = 3). Blood samples were collected at various time points over 24 h post dosing for analysis. The plasma pharmacokinetic profiles of F365 (n = 5) and polymyxin B (1 mg/kg, n = 11) in Sprague-Dawley rats (male, 10-week-old, 280 to 330 g) were assessed after intravenous administration (1 min) of F365 and polymyxin B via an indwelling jugular vein cannula. Blood samples (~0.3 mL) were collected via an indwelling carotid artery cannula at various time points over 24 h post dosing. Urine samples were collected at 4 °C using a metabolic cage during the period between 0 and 24 h post dosing. Concentrations of F365 and polymyxin B in plasma and urine samples were determined using LC-MS/MS and pharmacokinetic analysis was conducted using WinNonlin (Pharsight Corp., Mountain View, CA). The ELF pharmacokinetic profiles of F365 and polymyxin B was determined in neutropenic Swiss mice (female, 7-week-old, 22–28 g) after subcutaneous injection (40 mg/kg, n = 3). Bronchoalveolar lavage (BAL) samples were collected at various time points over 24 h post dosing from the cannulated trachea using Milli-Q water as BAL washing media. The average volume of ELF in mice was calculated by the ratio of urea concentrations in plasma and BAL samples. Concentrations of F365 and polymyxin B in plasma and BAL were analyzed by LC-MS/MS. Pharmacokinetic parameters were calculated using a non-compartment model with WinNonlin. For mouse, rat, and human plasma protein binding of F365 and polymyxin B, pooled plasma samples (n = 3) from each species were spiked with F365 or polymyxin B. The spiked plasma samples were subjected to ultrafiltration and the corresponding filtrates were analyzed by LC-MS/MS to determine the concentration of F365 and polymyxin B and the protein binding in each species.

[2] = tested on: P. aeruginosa PAM1723 (overexpresses MexAB-OprM); type: cell-based, Pseudomonas aeruginosa; details: Leu-Nap hydrolysis
Method: as §2, §3, §4, §5

[3] = tested on: P. aeruginosa FADDI-PA102; assay: MIC, polymyxin-resistant isolate; type: cell-based, Pseudomonas aeruginosa; details: carbapenem-resistant
Method: as §1

Row | Compound | MIC A. baumannii FADDI-AB144 (A. baumannii FADDI-AB144; polymyxin-resistant) [µg/mL] | MIC A. baumannii FADDI-AB156 (A. baumannii FADDI-AB156) [µg/mL] | effect on the rate of Leu-Nap hydrolysis (P. aeruginosa PAM1626) | diff of mean Log10 CFU/lung, Pre-treament minus treatment (A. baumannii FADDI-AB30; one way ANOVA comparison) [log10 CFU/thigh] | diff of mean Log10 CFU/lung, Vehicle minus treatment (A. baumannii FADDI-AB30; one way ANOVA comparison) [log10 CFU/thigh] | Log10 CFU/lung, Thigh 1 (A. baumannii FADDI-AB30) [log10 CFU/thigh] | Log10 CFU/lung, Thigh 2 (A. baumannii FADDI-AB30) [log10 CFU/thigh] | Log10 CFU/lung, Thigh 3 (A. baumannii FADDI-AB30) [log10 CFU/thigh] | Log10 CFU/lung, Thigh 4 (A. baumannii FADDI-AB30) [log10 CFU/thigh] | Protein binding ([1]; human) [%] | Protein binding ([1]; mouse) [%] | Protein binding ([1]; rat) [%] | IC50, inhibition of efflux activity [2] [µg/mL] | MIC P. aeruginosa FADDI-PA102 [3] [µg/mL] | MIC A. baumannii FADDI-AB144 (A. baumannii FADDI-AB144; FADDI-AB144) [µg/mL] | reduction in CFU/thigh beyond polymyxin B (A. baumannii FADDI-AB30; 45 mg/kg/d IP in 3 divided doses every 8 h, 24 h) [log10 CFU/thigh] | diff of mean Log10 CFU/lung, Polymyxin B minus F365 (A. baumannii FADDI-AB30; both 45mg/kg/d, one way ANOVA comparison, Polymyxin B - F365) [log10 CFU/thigh] | fraction unbound ([1]; human) | fraction unbound ([1]; mouse) | fraction unbound ([1]; rat)
1 | Polymyxin B [reference compound] | 16 | 8 | no effect | 3.14 | 3.4475 | 5.16 | 5.25 | 3.38 | 2.23 | 68 | 95 | 80 | 7.6 ± 1.4 | 4 | – | – | – | – | – | –
2 | CC[C@@H]1NC(=O)[C@@H](CC(C)C)NC(=O)[C@H](CCN)NC(=O)[C@@H](NC(=O)[C@H](CN)NC(=O)[C@@H](NC(=O)[C@H](CCN)NC(=O)c2ccc(Cl)cc2Cl)[C@@H](C)O)CCNC(=O)[C@H]([C@@H](C)O)NC(=O)[C@H](CCN)NC(=O)[C@H](CCN)NC1=O [Lipopeptide F365] (HELM PEPTIDE1{[O=C(c1ccc(Cl)cc1Cl)[*:2]].[Dab].T.[NC[C@H](N[*:1])C(=O)[*:2]].[Dab].[Dab].[dL].[Abu].[Dab].[Dab].T}$PEPTIDE1,PEPTIDE1,5:R3-11:R2$$$V2.0) | – | 4 (≈ 3.45 µM) | no effect | 5.655 | 5.9625 | 2.83 | 0 | 3.13 | 0 | – | – | – | 4.2 ± 1.5 | 4 (≈ 3.45 µM) | 32 (≈ 27.6 µM) | > 2.0 | 2.515 | 0.55 | 0.64 | 0.67
